Results as given in patent publication US10143686B2, “Oxidosqualene cyclase as a protein target for anticancer therapeutics” (The Curators of the University of Missouri, priority 2010, dated 2018).

Legend:
[1] = tested on: BT-474 breast cancer cells; assay: SRB cell viability assay, BT-474; assay type: cell-based, human; conditions: BT-474, 24 hours, dose-dependent, FIG. 2A
Experimental: (§1) The sulforhodamine B (SRB) assay was employed to evaluate the effect of OSC inhibitor Ro 48-8071 on viability of breast cancer and normal mammary gland cells with slight modification of the original procedure established at NCI. Accordingly, the cells were seeded in 96-well plates in 100 μl culture medium and incubated overnight at 37° C. with 5% CO2. […] The surviving or adherent cells were fixed in situ by withdrawing the growth medium and adding 100 μl of PBS and 100 μl of 50% cold trichloroacetic acid and then incubating at 4° C. for 1 h. The surviving cells were washed with ice-water, dried at room temperature (RT), and then stained with 50 μl 4% SRB for 8 min at RT. Unbound dye was removed by washing 5 times with cold 1% acetic acid, and the plates were dried at RT. Bound stain was solubilized with 150 μl 10 mM Tris buffer, and absorbance of samples were measured at 520 nm with a SpecTRA MAX 190 microplate reader (Sunnyvale, Calif.). In these experiments on BT-474, T47-D, and AG11132A cell lines, six wells were used for each concentration, and each experiment was performed at least twice.
(§2) The effect of OSC inhibition was evaluated in additional cancer cell lines as well. Cancer cell lines may be purchased from ATCC (Manassas, Va.). The SRB assay has been employed for determination of the inhibitory effects of RO 48-8071 on growth of different cancer cells. Cells were seeded into 96-well plates and incubated overnight at 37° C. with 5% CO2. The culture medium was removed after 24 hours, and cells were washed with DMEM/F12 medium and then treated with various concentrations of RO 48-8071 in 5% FBS culture medium for 24 and 48 hours. Surviving or adherent cells were fixed in situ by withdrawing the growth medium, adding 100 μl PBS and 100 μl 50% trichloroacetic acid and then incubating at 4° C. for one hour. Cells were washed with ice-cold water, dried at room temperature (RT), and then stained with 50 μl 4% SRB for eight minutes at RT. Unbound dye was removed by washing with cold 1% acetic acid for five times, and plates were dried at RT. Bound stain was solubilized with 150 μl 10 mM Tris buffer and absorbance of samples was read at 520 nm with a SpecTRA MAX 190 microplate reader (Molecular Devices, Sunnyvale, Calif.). Six wells were used for each concentration, and each experiment was performed two to three times.
Effect of RO 48-8071 on breast cancer cell line BT-474 viability. […] The culture mediums employed 10% FBS DMEM/F12 for culture and 5% FBS DMEM/F12 for treatment.

[2] = tested on: T47-D breast cancer cells; assay: SRB cell viability assay, T47-D; assay type: cell-based; conditions: 24 hours, dose-dependent, FIG. 2B
Experimental: as §1, §2
Effect of RO 48-8071 on breast cancer cell line T47-D viability. […] The culture mediums employed 10% FBS DMEM/F12 for culture and 5% FBS DMEM/F12 for treatment.

OSC = biological target: T1, OSC (Homo sapiens, UniProt P48449); conditions: value in parentheses not explained in the patent; cited from earlier work
T1 sequence (P48449 1-732): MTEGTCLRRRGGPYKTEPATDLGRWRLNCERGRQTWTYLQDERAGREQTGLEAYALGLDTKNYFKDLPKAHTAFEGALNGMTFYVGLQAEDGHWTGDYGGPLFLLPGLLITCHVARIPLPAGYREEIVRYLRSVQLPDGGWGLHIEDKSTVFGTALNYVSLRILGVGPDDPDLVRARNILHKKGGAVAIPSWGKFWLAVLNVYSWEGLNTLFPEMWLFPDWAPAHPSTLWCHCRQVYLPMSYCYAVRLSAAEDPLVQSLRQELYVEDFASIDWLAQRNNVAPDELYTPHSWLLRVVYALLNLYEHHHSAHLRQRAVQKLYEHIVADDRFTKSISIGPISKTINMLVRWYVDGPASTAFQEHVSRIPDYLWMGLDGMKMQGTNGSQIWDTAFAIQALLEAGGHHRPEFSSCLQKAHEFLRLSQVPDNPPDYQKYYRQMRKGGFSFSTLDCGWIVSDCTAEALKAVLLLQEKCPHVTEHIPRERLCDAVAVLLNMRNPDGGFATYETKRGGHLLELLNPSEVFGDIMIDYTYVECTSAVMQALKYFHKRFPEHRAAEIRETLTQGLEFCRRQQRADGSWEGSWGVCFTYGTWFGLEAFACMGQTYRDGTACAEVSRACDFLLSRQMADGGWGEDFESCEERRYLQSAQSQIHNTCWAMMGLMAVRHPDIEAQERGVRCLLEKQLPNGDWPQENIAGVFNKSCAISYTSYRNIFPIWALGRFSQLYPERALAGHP

Structure (SMILES): CCN(CC)CCO[C@H]1CC[C@@]2(C)C(=CC[C@@H]3[C@@H]2CC[C@]2(C)C(=O)CC[C@@H]32)C1 [U18666A, 3-beta-(2-(diethylamino)ethoxy)androst-5-en-17-one]
- effect on cell viability (SRB) [1]: significantly inhibit the viability
- effect on cell viability (SRB) [2]: significantly inhibit the viability

Structure (SMILES): O=C(c1ccc(Cl)cc1)N1CCC(Cc2ccc(C3=NCCO3)cc2)CC1
- IC50 (OSC): 36 nM

Structure (SMILES): CN(CCCCOc1ccc(C(=O)c2ccc(Br)cc2)cc1)C1CC1
- IC50 (OSC): 19 nM

Structure (SMILES): O=C1C2CCN(CC2)C1(CO)CO [PRIMA-1, 2,2-bis(hydroxymethyl)-3-quinuclidinone]
- effect on cell viability (SRB) [1]: significantly inhibit the viability
- effect on cell viability (SRB) [2]: significantly inhibit the viability

Structure (SMILES): C=CCC(C)CCCCCCOc1ccc2c(-c3ccc(Br)cc3)nn(C)c2c1 (stereo not shown)
- IC50 (OSC): 19.6 nM
